Experimental findings from article PMC7349888, “Synthesis and Evaluation of Dodecaboranethiol Containing Kojic Acid (KA-BSH) as a Novel Agent for Boron Neutron Capture Therapy” (Cells, 2020) are described below.

In one data set the test system is F98 rat glioma cells. Description: Cell viability assay (WST-8) in F98 cells. In kind it is cell-based. The following applies: WST-8 test, read-out: IC50 (cytotoxicity). The procedure: The cytotoxicity of KA-BSH was assayed using the water soluble tetrazolium (WST)-8 assay with a cell-counting kit (Wako Pure Chemicals, Osaka, Japan) following a modified version of the manufacturer-provided protocols. Relative cell survival was calculated according to Equation (1):(1) Relative cell survival (%)=absorbance value of compound treated well/absorbance value of untreated well×100

The next data set deals with F98 glioma bearing rats. Put plainly: In vivo BNCT therapeutic experiment, neutron irradiation at KURRI. On the set-up: species or system rat. An excerpt:
All animal experimental procedures were approved by the Animal Use Review Board and Ethical Committee of Osaka Medical College (No. 25092, 28 October 2015) and Kyoto University Research Reactor Institute (KURRI, No. 25030-13, 1 April 2015), and performed following the Guide for the Care and Use of Laboratory Animals. Eight-week-old, male Fischer 344 rats weighing between 200 and 250 g were used (Japan SLC, Inc. Shizuoka, Japan). Rats were anesthetized with an intraperitoneal (ip) injection of a mixture of medetomidine 0.15 mg, midazolam 2 mg, and butorphanol 2.5 mg/kg body weight (bw). The head of each rat was fixed with a stereotactic frame (Model 900; David Kopf Instruments, Tujunga, CA, USA). The scalp was incised at the midline and a small burr hole was drilled into the skull (1 mm posterior and 4 mm right-lateral to the bregma), using an electric drill. And then, F98 glioma cells were injected into the brain using a 25 µL Hamilton microsyringe with a 26-gauge needle (model 1700 RN, Hamilton Bonaduz AG, Bonaduz, Switzerland). The needle was inserted at a 5 mm depth from the skull and F98 cells were diluted in 10 µL of DMEM containing low-gelling temperature agarose at a concentration of either 10^3 for therapeutic experiments or 10^5 cells for biodistribution experiments. They were injected over 30 s using an automatic infuser pump. The needle entry hole was immediately sealed with bone wax and the incised scalp was closed with 3-0 silk sutures (Ethicon, North Ryde, NSW). […]
Therapeutic experiments for BNCT were performed 14 days after stereotactic implantation of 10^3 F98 glioma cells. […] The therapeutic effect of BNCT was evaluated by the survival time of the animals. […]
The means and standard deviations (SD) were computed for ^10B concentrations of F98 glioma cells and tissues of Fischer rats bearing intracerebral implants of the F98 glioma. […] Statistical differences between means were calculated using the Student’s unpaired t-test. In therapeutic experiments, the median survival time (MST) was calculated for each group using the Kaplan–Meier estimate. […]

[1] abbreviates: 10 mg 10B/kg iv, BNCT 1 h after administration.

As to “S-(2-(5-hydroxy-4-oxo-4H-pyran-2-yl) methyl) Thioundecahydro-Closo- Dodecaborate (2-) Disodium Salt [KA-BSH]”, the half-maximal inhibitory concentration (IC50) in the data set on F98 rat glioma cells came out at 10.4 mM. Besides, in the data set with F98 glioma bearing rats (setting [1]), the “Survival Time, Median (MST)” value worked out at 36.0 days and the “Survival Time, Range” value is 32 – 38. The “%ILS Median (percent increase life span)” value with F98 glioma bearing rats (relative to median survival time of untreated controls) is 22.0%.
